SMILES strings stand for the structures. Read-outs that look alike come from different tables or passages of the source.

Consider 2 compounds from patent US20170032106A1, “System and Method for Analyzing Adverse Event Data” (Astellas Pharma Europe Ltd., priority 2015, published 2017).

On the set-up of data set [1]: species or system patients. The note with it: human, in vivo; for burden estimate from dry mouth / overall burden estimate: 85 days. An excerpt:
The systems and methods of the present invention are now described with reference to specific examples of clinical trials and the adverse event data generated in connection therewith, and stored in a database. […] 2015]. DOI: 10.1177/1756287215589250) with a β3 adrenergic receptor agonist and an anti-muscarinic agent. General names for each drug treatment are used herein.
First described is the data analysis involved with implementation of the invention. More particularly, the application of the methodology involves the use of a clinical study database with individual data entries for TEAEs per patient per day. The presence of TEAEs may be plotted against the study day, such that if a patient reported a TEAE from Days 3 to 5, this TEAE was considered present on Days 3, 4 and 5. Also, if an end date was not present in the database, or a TEAE was ongoing, the last study day of the patient was taken as the end day of the TEAE. […] The addition of coloring that corresponds with TEAE severity allows easy discrimination of TEAEs of differing severity in the graph.
In order to visually represent the safety/TEAE burden experienced by a patient, varied weighting may be applied to TEAE severity in each arm in a consistent manner. The graph may, therefore, display the number of weighted TEAEs per day. For purposes of example, in the graphs described herein, TEAEs that were mild, moderate, severe, life threatening/disabling and related to death were weighted to represent 1×, 2×, 3×, 4× and 5×TEAEs per event per day, respectively. Further, the investigator may indicate the seriousness of the TEAE.
An area under the curve (AUC) analysis can be performed in conjunction with the burden of therapy methodology to quantitatively compare potential differences in mean events per day between study arms. This can be performed in conjunction with weighting of events if required. An AUC analysis may be useful in studies that have a similar presence of events in each arm, as an estimate of the mean weighted events per day for each arm can be compared using statistical tools.
The AUC for each individual subject can also be calculated. The AUC represents the total burden that an individual subject experienced during the trial. The AUC is the sum of the burden, for all burdens of an individual subject. Thus, the AUC of subject i is burdeni=Σj=1^t^i burdenij, where ti is the total number of study days of subject i.
The AUC can be used in an analysis of covariance (ANCOVA) as a response variable and the impact of different covariates and factors on the AUC can be investigated. The obvious factor is treatment, but one can include medication history, age, gender or BMI as […] in the ANCOVA analysis.
To analyze the profiles with an ANCOVA, the AUC for dry mouth of each subject was derived. The AUC was then used as the dependent variable in the model. […] It is likely that a negative past experience with anti-muscarinics could influence the recording of a specific adverse event like dry-mouth. In the statistical (ANCOVA) model, prior anti-muscarinics dissatisfaction was added next to treatment as explanatory variable. […] Prior anti-muscarinic dissatisfaction had also a low p-value (p=0.007), meaning that subjects with a negative experience using anti muscarinics also reported more dry mouths. In this study, dry mouth was reported by 29 patients (3.1%) in the adrenergic agonist group and 54 patients (5.8%) in the antimuscarinic group (Batista et al., 2015). An analysis of patients who reported dry mouth was performed to investigate whether there was a difference between arms and approximately 1.5-2.0% of patients reported dry mouth in the antimuscarinic group from Days 17-85 (FIGS. 3B and 4B).

The conditions of data set [2]: cited from earlier work.
The mark [3] stands for this setting: overactive bladder study, whole study.

Regarding `O=C(O[C@H]1CN2CCC1CC2)N1CCc2ccccc2[C@@H]1c1ccccc1` [antimuscarinic agent, solifenacin], in data set [1], the “patients reporting dry mouth per day” value is 1.5-2.0%, the “burden estimate from dry mouth” value is on record as 5.7 and the overall burden estimate was 19.6. In data set [1] (10 day), the “difference in the proportion of patients with TEAEs” value was 0.1%. Also, in data set [1] (85 day), the “difference in the proportion of patients with TEAEs” value is 5%.

For `Nc1nc(CC(=O)Nc2ccc(CCNC[C@H](O)c3ccccc3)cc2)cs1` [β3 adrenergic receptor agonist, mirabegron], in data set [2] (human, in vivo), the “number of patients reporting dry mouth” value is given as 29 patients and the “patients reporting dry mouth (%)” value is recorded as 3.1%. In addition, in data set [2] (setting [3]), the “patients with TEAEs (%)” value was 29.3% and the “total number of patients with TEAEs” value is reported as 274. For the same compound, in data set [1], the “burden estimate from dry mouth” value is 2.9 and the overall burden estimate was 15.1.
